In the supplement of paper PMC10307832:

Compound: COc1ccc(-c2ccc3c(N4CCOC[C@@H]4C)nc(N4CCOC[C@@H]4C)nc3n2)cc1CO [AZD8055]
Assay: relative viability (nuclei count vs DMSO), 5 days (fraction); higher = more cells survive
Summary of the method: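 A plate was accepted only when its control CV was below 25% and the cells had doubled at least once. Viability is defined from nuclear counts as treated wells divided by vehicle wells, with the median taken across plates. That median covers lung cancer cell lines grown in 1536-well plates, dosed by pinning at five √10-spaced library-drug concentrations, and counted in MetaXpress from 4× Hoechst images after 5 days.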

| Cell Line | relative viability (0.01 µM) | relative viability (0.03162 µM) | relative viability (0.1 µM) | relative viability (0.3162 µM) | relative viability (1 µM) |
| --- | --- | --- | --- | --- | --- |
| 201T | 0.955 | 0.987 | 0.907 | 0.635 | 0.487 |
| A549 | 1 | 0.83 | 0.639 | 0.19 | 0.106 |
| A-427 | 1.05 | 0.871 | 0.893 | 0.574 | 0.586 |
| ABC-1 | 0.948 | 1.08 | 0.757 | 0.332 | 0.413 |
| BEN | 0.901 | 0.6 | 0.53 | 0.358 | 0.325 |
| CAL-12T | 1.06 | 0.995 | 0.7 | 0.322 | 0.274 |
| COR-L23 | 1.35 | 0.921 | 0.862 | 0.28 | 0.207 |
| COR-L 105 | 1.04 | 0.947 | 0.64 | 0.378 | 0.435 |
| Calu-6 | 1.13 | 0.991 | 0.835 | 0.621 | 0.449 |
| ChaGo-K-1 | 1.02 | 0.998 | 0.952 | 0.858 | 0.722 |
| EBC-1 | 1.11 | 0.828 | 0.609 | 0.244 | 0.205 |
| EKVX | 1.09 | 1.08 | 0.818 | 0.602 | 0.432 |
| EMC-BAC-2 | 0.992 | 0.784 | 0.698 | 0.356 | 0.336 |
| EPLC-272H | 0.807 | 0.73 | 0.47 | 0.356 | 0.358 |
| H3255 | 1.11 | 0.948 | 0.778 | 0.436 | 0.349 |
| HARA | 1.11 | 1.06 | 0.774 | 0.563 | 0.304 |
| HCC-15 | 1.09 | 1.03 | 0.883 | 0.53 | 0.351 |
| HCC-44 | 0.99 | 1.03 | 0.844 | 0.552 | 0.473 |
| HCC-78 | 1.03 | 0.837 | 0.615 | 0.395 | 0.457 |
| HCC-366 | 1.11 | 0.963 | 0.907 | 0.698 | 0.354 |
| HCC-827 | 1.13 | 1.1 | 1.11 | 0.876 | 0.768 |
| HOP-62 | 1.09 | 0.922 | 1.08 | 0.639 | 0.54 |
| IA-LM | 0.98 | 0.651 | 0.241 | 0.103 | 0.116 |
| LC-2-ad | 1.04 | 1.04 | 0.922 | 0.621 | 0.529 |
| LCLC-97TM1 | 1.04 | 0.822 | 0.453 | 0.246 | 0.205 |
| LCLC-103H | 0.945 | 0.86 | 0.86 | 0.609 | 0.519 |
| LK-2 | 0.84 | 0.641 | 0.508 | 0.24 | 0.195 |

| Cell Line | relative viability (0.01 µM) | relative viability (0.03162 µM) | relative viability (0.1 µM) | relative viability (0.3162 µM) | relative viability (1 µM) |
| --- | --- | --- | --- | --- | --- |
| LOU-NH91 | 0.931 | 0.934 | 0.724 | 0.633 | 0.624 |
| LU99A | 1.07 | 0.54 | 0.461 | 0.261 | 0.253 |
| LXF-289 | 1.07 | 1.05 | 1.01 | 0.909 | 0.768 |
| NCI-H23 | 1.09 | 0.804 | 0.662 | 0.371 | 0.373 |
| NCI-H322M | 0.933 | 0.968 | 0.741 | 0.64 | 0.601 |
| NCI-H358 | 1.03 | 1.15 | 0.855 | 0.323 | 0.263 |
| NCI-H441 | 1.06 | 0.929 | 0.695 | 0.427 | 0.387 |
| NCI-H460 | 1.13 | 0.995 | 0.798 | 0.416 | 0.264 |
| NCI-H520 | 0.904 | 0.441 | 0.373 | 0.19 | 0.178 |
| NCI-H522 | 0.965 | 1 | 0.723 | 0.519 | 0.719 |
| NCI-H596 | 0.953 | 0.762 | 0.683 | 0.469 | 0.406 |
| NCI-H647 | 0.981 | 0.717 | 0.51 | 0.332 | 0.204 |
| NCI-H650 | 0.984 | 0.809 | 0.738 | 0.427 | 0.303 |
| NCI-H661 | 1.03 | 0.992 | 0.842 | 0.521 | 0.537 |
| NCI-H727 | 1.17 | 0.953 | 0.695 | 0.544 | 0.412 |
| NCI-H838 | 1.05 | 0.676 | 0.442 | 0.322 | 0.339 |
| NCI-H1299 | 1.04 | 1.06 | 1.04 | 0.807 | 0.415 |
| NCI-H1355 | 0.889 | 0.865 | 0.578 | 0.303 | 0.261 |
| NCI-H1395 | 0.869 | 0.648 | 0.739 | 0.488 | 0.427 |
| NCI-H1437 | 1.05 | 1.02 | 0.895 | 0.448 | 0.318 |
| NCI-H1563 | 0.844 | 0.791 | 0.719 | 0.604 | 0.684 |
| NCI-H1648 | 0.642 | 0.745 | 0.542 | 0.271 | 0.326 |
| NCI-H1650 | 0.923 | 1 | 0.802 | 0.498 | 0.419 |
| NCI-H1651 | 1.08 | 0.847 | 0.871 | 0.61 | 0.389 |
| NCI-H1666 | 1.1 | 1.07 | 0.925 | 0.802 | 0.675 |
| NCI-H1703 | 0.822 | 0.715 | 0.634 | 0.265 | 0.332 |
| NCI-H1734 | 1.08 | 0.732 | 0.646 | 0.385 | 0.276 |

| Cell Line | relative viability (0.01 µM) | relative viability (0.03162 µM) | relative viability (0.1 µM) | relative viability (0.3162 µM) | relative viability (1 µM) |
| --- | --- | --- | --- | --- | --- |
| NCI-H1755 | 1.02 | 0.841 | 0.825 | 0.537 | 0.569 |
| NCI-H1792 | 0.951 | 0.612 | 0.325 | 0.171 | 0.216 |
| NCI-H1793 | 0.669 | 0.443 | 0.287 | 0.212 | 0.222 |
| NCI-H1915 | 1.01 | 0.81 | 0.959 | 0.63 | 0.513 |
| NCI-H1944 | 1.01 | 0.786 | 0.673 | 0.335 | 0.316 |
| NCI-H1975 | 1.05 | 0.812 | 0.55 | 0.347 | 0.283 |
| NCI-H1993 | 0.791 | 0.72 | 0.577 | 0.545 | 0.666 |
| NCI-H2009 | 1.03 | 0.918 | 0.924 | 0.501 | 0.344 |
| NCI-H2023 | 0.901 | 0.618 | 0.362 | 0.163 | 0.153 |
| NCI-H2085 | 1 | 0.987 | 0.723 | 0.43 | 0.42 |
| NCI-H2087 | 1.14 | 0.908 | 0.936 | 0.458 | 0.349 |
| NCI-H2126 | 0.973 | 0.926 | 0.743 | 0.515 | 0.418 |
| NCI-H2170 | 1.01 | 0.881 | 0.735 | 0.365 | 0.345 |
| NCI-H2228 | 1.29 | 0.757 | 0.378 | 0.201 | 0.213 |
| NCI-H2342 | 1.19 | 0.881 | 0.735 | 0.476 | 0.572 |
| NCI-H2347 | 1.14 | 0.942 | 0.911 | 0.5 | 0.48 |
| NCI-H2405 | 0.999 | 1 | 0.797 | 0.406 | 0.407 |
| NCI-H3122 | 1.06 | 1.11 | 0.846 | 0.457 | 0.311 |
| PC-3 [JPC-3] | 1.08 | 1.11 | 0.931 | 0.957 | 0.609 |
| PC-14 | 1.23 | 1.09 | 0.715 | 0.286 | 0.178 |
| RERF-LC-KJ | 1.05 | 0.942 | 0.822 | 0.458 | 0.414 |
| SK-LU-1 | 1.05 | 0.82 | 0.628 | 0.388 | 0.366 |
| SK-MES-1 | 0.967 | 0.892 | 0.809 | 0.408 | 0.289 |
| SW 900 | 0.827 | 0.783 | 0.704 | 0.513 | 0.236 |
| SW 1573 | 1.05 | 0.751 | 0.704 | 0.326 | 0.203 |
| UMC-11 | 0.942 | 0.711 | 0.607 | 0.345 | 0.322 |
